In patent publication US20130261077A1 (priority 2012, published 2013):

These compounds were tested against T1, FimH-CRD (Escherichia coli, UniProt P08191) (assay: Competitive binding assay by fluorescence polarization, assay 1 (compounds prepared by manual serial dilution)).
T1 construct: The first 177 amino acids of the FimH protein; thrombin tag (printed as 'fusion protein with thrombin') (cleaved yes); made in house; host or cells: bacteria (pET21b plasmid)
Method in brief: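 Fluorescence-polarization competition of 5 nM Alexa 647 mannoside probe with 60 nM FimH-CRD (first 177 residues, tag removed) in Tris-Cl pH 7.0, NaCl, EDTA, β-ME, BSA, 2.5% DMSO, 5 h at RT in the dark. Twelve-point 3-fold titrations (0.4 nM–75 μM) in duplicate; Kd interpolated from displacement curves.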

T1 sequence (P08191 22-177): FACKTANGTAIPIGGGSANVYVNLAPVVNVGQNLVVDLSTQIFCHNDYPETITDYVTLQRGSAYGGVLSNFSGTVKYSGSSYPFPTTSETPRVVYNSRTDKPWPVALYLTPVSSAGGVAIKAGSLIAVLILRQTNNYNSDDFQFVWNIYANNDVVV

| Compound | IC50 [µM] | Kd [µM] |
| --- | --- | --- |
| COC(=O)c1cc(Oc2cccc([C@H]3O[C@H](CO)[C@@H](O)[C@H](O)[C@@H]3O)c2)cc(C(=O)OC)c1 [Compound 51, Dimethyl 5-[3-[(2R,3S,4R,5S,6R)-3,4,5-trihydroxy-6-(hydroxymethyl)tetrahydropyran-2-yl]phenoxy]benzene-1,3-dicarboxylate] | 0.033 | 0.0052 ± 0.0001 |
| COc1ccc(Br)cc1[C@H]1O[C@H](CO)[C@@H](O)[C@H](O)[C@@H]1O [Compound 41, (2R,3S,4R,5S,6R)-2-(5-bromo-2-methoxyphenyl)-6-(hydroxymethyl)tetrahydro-2H-pyran-3,4,5-triol] | 0.223 | 0.0478 ± 0.0068 |
| CC(C)C(=O)Nc1ccc(-c2cccc([C@H]3O[C@H](CO)[C@@H](O)[C@H](O)[C@@H]3O)c2)cc1 [Compound 49, 2-methyl-N-[4-[3-[(2R,3S,4R,5S,6R)-3,4,5-trihydroxy-6-(hydroxymethyl)tetrahydropyran-2-yl]phenyl]phenyl]propanamide] | 0.045 | 0.0063 ± 0.0014 |
| CNS(=O)(=O)c1cccc(-c2cccc([C@H]3O[C@H](CO)[C@@H](O)[C@H](O)[C@@H]3O)c2)c1 [Compound 50, N-methyl-3-[3-[(2R,3S,4R,5S,6R)-3,4,5-trihydroxy-6-(hydroxymethyl)tetrahydropyran-2-yl]phenyl]benzenesulfonamide] | 0.039 | 0.0107 ± 0.0052 |
| CNC(=O)c1cccc(Oc2ccc([C@H]3O[C@H](CO)[C@@H](O)[C@H](O[C@H]4O[C@H](CO)[C@@H](O)[C@H](O)[C@@H]4O)[C@@H]3O)cc2)c1 [Compound 268, 3-[4-[(2R,3R,4R,5R,6R)-3,5-Dihydroxy-6-(hydroxymethyl)-4-[(2R,3S,4S,5S,6R)-3,4,5-trihydroxy-6-(hydroxymethyl)tetrahydropyran-2-yl]oxy-tetrahydropyran-2-yl]phenoxy]-N-methyl-benzamide] | 0.077 | 0.019 ± 0.0038 |
| OC[C@H]1O[C@H](O[C@@H]2[C@H](O)[C@@H](c3cccc(OCCF)c3)O[C@H](CO)[C@H]2O)[C@@H](O)[C@@H](O)[C@@H]1O [Compound 287, (2R,3S,4S,5S,6R)-2-[(2R,3R,4R,5R,6R)-2-[3-(2-Fluoroethoxy)phenyl]-3,5-dihydroxy-6-(hydroxymethyl)tetrahydropyran-4-yl]oxy-6-(hydroxymethyl)tetrahydropyran-3,4,5-triol] | 0.107 | 0.0322 ± 0.0085 |
| O=C(NCCc1ccccc1)c1cccc([C@H]2O[C@H](CO)[C@@H](O)[C@H](O)[C@@H]2O)c1 [Compound 34, N-phenethyl-3-((2R,3S,4R,5S,6R)-3,4,5-trihydroxy-6-(hydroxymethyl)tetrahydro-2H-pyran-2-yl)benzamide] | 0.124 | 0.038 ± 0.0071 |
| CN(C)Cc1ccccc1-c1cccc([C@H]2O[C@H](CO)[C@@H](O)[C@H](O)[C@@H]2O)c1 [Compound 14, (2R,3S,4R,5S,6R)-2-(2′-((dimethylamino)methyl)-[1,1′-biphenyl]-3-yl)-6-(hydroxymethyl)tetrahydro-2H-pyran-3,4,5-triol] | 0.551 | 0.0778 ± 0.0704 |
| COc1ccc([C@H]2O[C@H](CO)[C@@H](O)[C@H](O)[C@@H]2O)cc1O [Compound 61, (2R,3S,4R,5S,6R)-2-(3-hydroxy-4-methoxy-phenyl)-6-(hydroxymethyl)tetrahydropyran-3,4,5-triol] | 0.042 | 0.0172 ± 0.0107 |
| COC(=O)c1cccc(-c2ccc([C@H]3O[C@H](CO)[C@@H](O)[C@H](O)[C@@H]3O)cc2)c1 [Compound 294, methyl 4′-((2R,3S,4R,5S,6R)-3,4,5-trihydroxy-6-(hydroxymethyl)tetrahydro-2H-pyran-2-yl)-[1,1′-biphenyl]-3-carboxylate] | – | 0.011 ± 0.003 |
| O=C(Nc1cccnc1)c1cccc([C@H]2O[C@H](CO)[C@@H](O)[C@H](O)[C@@H]2O)c1 [Compound 29, N-(pyridin-3-yl)-3-((2R,3S,4R,5S,6R)-3,4,5-trihydroxy-6-(hydroxymethyl)tetrahydro-2H-pyran-2-yl)benzamide] | 0.059 | 0.0181 ± 0.0059 |
| COc1ccc(C2O[C@H](CO)[C@@H](O)[C@H](O[C@H]3O[C@H](CO)[C@@H](O)[C@H](O)[C@@H]3O)[C@@H]2O)cc1Oc1ccc(NC(=O)C(C)C)cc1 (some centres unmarked) [Compound 290] | 0.029 | 0.0119 ± 0.0049 |
| CNC(=O)c1cccc(-c2ccc([C@H]3O[C@H](CO)[C@@H](O)[C@H](O)[C@@H]3O)cc2)c1 [Compound 295, N-methyl-4′-((2R,3S,4R,5S,6R)-3,4,5-trihydroxy-6-(hydroxymethyl)tetrahydro-2H-pyran-2-yl)-[1,1′-biphenyl]-3-carboxamide] | – | 0.012 ± 0.003 |
| Nc1cccc(-c2cccc([C@H]3O[C@H](CO)[C@@H](O)[C@H](O)[C@@H]3O)c2)c1 [Compound 16, (2R,3S,4R,5S,6R)-2-[3-(3-aminophenyl)phenyl]-6-(hydroxymethyl)tetrahydropyran-3,4,5-triol] | 0.247 | 0.037 ± 0.0337 |
| COC(=O)Cc1cccc(-c2cccc([C@H]3O[C@H](CO)[C@@H](O)[C@H](O)[C@@H]3O)c2)c1 [Compound 65, Methyl 2-(3′-((2R,3S,4R,5S,6R)-3,4,5-trihydroxy-6-(hydroxymethyl)tetrahydro-2H-pyran-2-yl)-[1,1′-biphenyl]-3-yl)acetate] | 0.018 | 0.0052 ± 0.0001 |
| CNC(=O)c1ccc2nc(Oc3cccc([C@H]4O[C@H](CO)[C@@H](O)[C@H](O)[C@@H]4O)c3)sc2c1 [Compound 255, N-methyl-2-[3-[(2R,3S,4R,5S,6R)-3,4,5-trihydroxy-6-(hydroxymethyl)tetrahydropyran-2-yl]phenoxy]-1,3-benzothiazole-6-carboxamide] | – | 0.0087 ± 0.002 |
| Cn1nc(C(F)(F)F)cc1-c1cccc([C@H]2O[C@H](CO)[C@@H](O)[C@H](O)[C@@H]2O)c1 [Compound 18, (2R,3S,4R,5S,6R)-2-(hydroxymethyl)-6-(3-(1-methyl-3-(trifluoromethyl)-1H-pyrazol-5-yl)phenyl)tetrahydro-2H-pyran-3,4,5-triol] | 0.16 | 0.0337 ± 0.0158 |
| OC[C@H]1O[C@H](c2cccc(-c3ccsc3)c2)[C@@H](O)[C@@H](O)[C@@H]1O [Compound 8, (2R,3S,4R,5S,6R)-2-(hydroxymethyl)-6-[3-(3-thienyl)phenyl]tetrahydropyran-3,4,5-triol] | 0.155 | 0.0401 ± 0.0171 |
| OC[C@H]1O[C@H](c2cccc(O)c2)[C@@H](O)[C@@H](O)[C@@H]1O [Compound 1, (2R,3S,4R,5S,6R)-2-(hydroxymethyl)-6-(3-hydroxyphenyl)tetrahydropyran-3,4,5-triol] | 0.053 | 0.0123 ± 0.0051 |
| OC[C@H]1O[C@H](c2cccc(-c3ccc4c(c3)OCO4)c2)[C@@H](O)[C@@H](O)[C@@H]1O [Compound 11, (2R,3S,4R,5S,6R)-2-[3-(1,3-benzodioxol-5-yl)phenyl]-6-(hydroxymethyl)tetrahydropyran-3,4,5-triol] | 0.088 | 0.0119 ± 0.0073 |
| Cc1nnc(-c2ccc(Oc3cccc([C@H]4O[C@H](CO)[C@@H](O)[C@H](O[C@H]5O[C@H](CO)[C@@H](O)[C@H](O)[C@@H]5O)[C@@H]4O)c3)cc2)o1 [Compound 272, (2R,3S,4S,5S,6R)-2-[(2R,3R,4R,5R,6R)-3,5-Dihydroxy-2-(hydroxymethyl)-6-[3-[4-(5-methyl-1,3,4-oxadiazol-2-yl)phenoxy]phenyl]tetrahydropyran-4-yl]oxy-6-(hydroxymethyl)tetrahydropyran-3,4,5-triol] | 0.046 | 0.0127 ± 0.0077 |
| OC[C@H]1O[C@H](c2cccc(-c3ccccc3)c2)[C@@H](O)[C@@H](O)[C@@H]1O [Compound 43, (2R,3S,4R,5S,6R)-2-(hydroxymethyl)-6-(3-phenylphenyl)tetrahydropyran-3,4,5-triol] | 0.064 | 0.0124 ± 0.0013 |
| Cc1ccc(-c2cccc([C@H]3O[C@H](CO)[C@@H](O)[C@H](O)[C@@H]3O)c2)cc1 [Compound 6, (2R,3S,4R,5S,6R)-2-(hydroxymethyl)-6-(4′-methyl-[1,1′-biphenyl]-3-yl)tetrahydro-2H-pyran-3,4,5-triol] | 0.087 | 0.0137 ± 0.0077 |
| Cc1cnc(NC(=O)c2cccc([C@H]3O[C@H](CO)[C@@H](O)[C@H](O)[C@@H]3O)c2)s1 [Compound 28, N-(5-methylthiazol-2-yl)-3-((2R,3S,4R,5S,6R)-3,4,5-trihydroxy-6-(hydroxymethyl)tetrahydro-2H-pyran-2-yl)benzamide] | 0.056 | 0.0167 ± 0.0075 |
| CNC(=O)c1cccc(-c2ccccc2[C@H]2O[C@H](CO)[C@@H](O)[C@H](O)[C@@H]2O)c1 [Compound 39, N-methyl-2′-((2R,3S,4R,5S,6R)-3,4,5-trihydroxy-6-(hydroxymethyl)tetrahydro-2H-pyran-2-yl)-[1,1′-biphenyl]-3-carboxamide] | 1.39 | 0.396 ± 0.0447 |
| CC(=O)Nc1cccc(-c2cccc([C@H]3O[C@H](CO)[C@@H](O)[C@H](O)[C@@H]3O)c2)c1 [Compound 7, N-[3-[3-[(2R,3S,4R,5S,6R)-3,4,5-trihydroxy-6-(hydroxymethyl)tetrahydropyran-2-yl]phenyl]phenyl]acetamide] | 0.07 | 0.0143 ± 0.0091 |
| OC[C@H]1O[C@H](O[C@@H]2[C@H](O)[C@@H](c3cccc(C4CCCCC4)c3)O[C@H](CO)[C@H]2O)[C@@H](O)[C@@H](O)[C@@H]1O [Compound 278, (2R,3S,4S,5S,6R)-2-[(2R,3R,4R,5R,6R)-2-(3-Cyclohexylphenyl)-3,5-dihydroxy-6-(hydroxymethyl)tetrahydropyran-4-yl]oxy-6-(hydroxymethyl)tetrahydropyran-3,4,5-triol] | 0.064 | 0.0127 ± 0.0009 |
| OC[C@H]1O[C@H](O[C@@H]2[C@H](O)[C@@H](c3cccc(O)c3)O[C@H](CO)[C@H]2O)[C@@H](O)[C@@H](O)[C@@H]1O [Compound 265, (2R,3S,4S,5S,6R)-2-[(2R,3R,4R,5R,6R)-3,5-Dihydroxy-2-(hydroxymethyl)-6-(3-hydroxyphenyl)tetrahydropyran-4-yl]oxy-6-(hydroxymethyl)tetrahydropyran-3,4,5-triol] | 0.162 | 0.0521 ± 0.0138 |
